Data on 15 molecules can be found in ChEMBL document CHEMBL4002646, “Antimalarial Properties of Simplified Kalihinol Analogues” (ACS Med Chem Lett, 2017).

The subject of experiment [1] is Plasmodium falciparum. Description: Antimalarial activity against Plasmodium falciparum 3D7 infected in human O+ erythrocytes after 72 hrs by SYBR green fluorescence-based method. In kind it is functional, cell-based.
Experiment [2] deals with Plasmodium falciparum. Description: Antimalarial activity against chloroquine-resistant Plasmodium falciparum Dd2 infected in human O+ erythrocytes after 72 hrs by SYBR green fluorescence-based method. In kind it is functional, cell-based.
The subject of experiment [3] is Plasmodium falciparum. Description: Antimalarial activity against chloroquine-resistant Plasmodium falciparum FCR-3 ATCC 30932 infected in human RBC after 72 hrs by Geimsa staining based microscopic method. In kind it is functional. As to conditions: FCR-3/Gambia ATCC 30932, 72 h.
Experiment [4] concerns Plasmodium falciparum. Nature of the experiment: Antimalarial activity against chloroquine-resistant Plasmodium falciparum W2 infected in human RBC after 72 hrs. In kind it is functional. As to conditions: W2, 72 h.
[5] abbreviates: Plasmodium falciparum, 3D7, 72 h.
Where [6] appears, read: Plasmodium falciparum, Dd2, 72 h.

For `CC(C)(O)C[C@@H]1[C@@]2(C)CCCC(C)(C)[C@@H]2CC[C@]1(C)C#N`, the IC50 – broadly, the concentration that gives 50% inhibition – is 244 nM in the experiment on Plasmodium falciparum [1] (setting [5]) and 416 nM in the experiment on Plasmodium falciparum [2] (setting [6]). `CC1(C)O[C@@](C)([C@H]2CC[C@](C)(C#N)[C@H]3CC[C@@](C)(O)[C@H](C#N)[C@@H]32)CC[C@@H]1Cl`: the IC50 with Plasmodium falciparum [3] was 1.2 nM.

Turning to `CC(C)[C@H]1CC[C@@](C)(C#N)[C@H]2CC[C@@](C)(O)[C@H](C#N)[C@H]12`, the IC50 in the experiment on Plasmodium falciparum [1] (setting [5]) stood at 2.9 nM; with Plasmodium falciparum [2] (setting [6]), 31 nM.

Take `CC1=C[C@@H]2[C@@H](C(C)C)CC[C@@](C)(C#N)[C@@H]2CC1` (racemic): the figures for the half-maximal inhibitory concentration (IC50) with Plasmodium falciparum [1] (setting [5]) and in the experiment with Plasmodium falciparum [2] (setting [6]) were 180 nM and 45 nM, respectively. For `CC(C)[C@H]1CC[C@](C)(C#N)[C@H]2CC[C@@](C)(C#N)[C@H](O)[C@H]12` (racemic), the IC50 amounted to 27 nM in the experiment with Plasmodium falciparum [1] and 46 nM with Plasmodium falciparum [2]. Consider `CC1=C[C@H]2[C@H](CC1)[C@@](C)(C#N)CC[C@@H]2[C@@]1(C)CC[C@](C#N)(C(C)C)O1`, for which the values for the IC50 with Plasmodium falciparum [1] (setting [5]) and in the experiment on Plasmodium falciparum [2] (setting [6]) were 175 nM and 123 nM, respectively. In the same order, the values of `CC(C)(C#N)C[C@@H]1[C@@]2(C)CCCC(C)(C)[C@@H]2CC[C@]1(C)C#N` are 1.9 nM and 1.6 nM. Regarding `CC(C)[C@H]1CC[C@@](C)(C#N)[C@H]2CC[C@@](C)(C#N)[C@H](O)[C@H]12`, the IC50 in the experiment with Plasmodium falciparum [1] (setting [5]) came out at 1150 nM; with Plasmodium falciparum [2] (setting [6]), 958 nM. Taken in the same sequence, the figures for `CC(C)(Cl)[C@@H]1CC[C@](C)([C@H]2CC[C@](C)(C#N)[C@H]3CC[C@@](C)(O)[C@H](C#N)[C@@H]32)O1` were 8.4 nM and 4.6 nM.

`C[C@@H]1C[C@@H]2C[C@H](C)[C@H]3CC[C@](C)(C#N)[C@H]4CC[C@@H]([C@@H]2[C@H]34)[C@]1(C)C#N`: the IC50 with Plasmodium falciparum [2] (setting [6]) was 1.6 nM; in the experiment with Plasmodium falciparum [4] it was 13 nM.

`CC(C)[C@H]1CC[C@](C)(C#N)[C@H]2CC[C@@](C)(O)[C@H](C#N)[C@H]12`: the IC50 in the experiment with Plasmodium falciparum [1] (setting [5]) was 12 nM; in the experiment with Plasmodium falciparum [2] (setting [6]), 16 nM. Taken in the same sequence, the figures for `CC1=C[C@@H]2[C@@H](C(C)C)CC[C@](C)(C#N)[C@H]2CC1` (racemic) were 705 nM and 247 nM. Taken in the same sequence, the figures for `C[C@]1(C#N)CC[C@H](CCO)[C@H]2[C@@H](C#N)[C@](C)(O)CC[C@@H]21` (racemic) were 302 nM and 205 nM.

Turning to `CC(C)[C@H]1CC[C@](C)(C#N)[C@H]2CC[C@@](C)(C#N)[C@H](O)[C@H]12`, the 50% inhibitory concentration (IC50) in the experiment on Plasmodium falciparum [1] (setting [5]) was determined as 15 nM; in the experiment with Plasmodium falciparum [2] it was 17 nM. In turn, `CC1=C[C@@]2(O)[C@@H](CC1)[C@@](C)(C#N)CC[C@@H]2[C@@]1(C)CC[C@@H](C(C)(C)C#N)O1` displayed an IC50 with Plasmodium falciparum [3] of 80 nM.
